Structures are written as SMILES.

The test deals with T1, PHD2 (Homo sapiens, UniProt Q9GZT9).
T1 construct: FLAG-tagged full length PHD2 expressed in and purified from baculovirus-infected Sf9 cells; FLAG; made in house; host or cells: baculovirus-infected Sf9 cells
T1 sequence (Q9GZT9 whole entry): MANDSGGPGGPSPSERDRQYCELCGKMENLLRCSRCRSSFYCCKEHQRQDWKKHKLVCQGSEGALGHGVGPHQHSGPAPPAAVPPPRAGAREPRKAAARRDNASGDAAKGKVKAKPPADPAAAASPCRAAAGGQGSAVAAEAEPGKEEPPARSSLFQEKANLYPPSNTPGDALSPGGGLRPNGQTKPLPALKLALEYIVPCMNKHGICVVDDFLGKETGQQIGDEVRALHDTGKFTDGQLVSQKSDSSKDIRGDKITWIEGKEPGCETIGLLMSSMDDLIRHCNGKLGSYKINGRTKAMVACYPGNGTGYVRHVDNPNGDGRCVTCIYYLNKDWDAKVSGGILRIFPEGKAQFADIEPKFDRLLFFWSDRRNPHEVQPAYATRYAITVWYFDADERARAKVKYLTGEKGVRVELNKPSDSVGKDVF
The test is described as follows: PHD2 / HIF-1α peptide hydroxylation assay, time resolved fluorescence (VHL complex detection). Format: biochemical. The following applies: FLAG-tagged full length PHD2; 0.2 μM 2-oxoglutarate, 0.5 μM HIF-1α peptide; read-out: PHD2 Activity (PHD2 binding activity expressed as IC50 (nM)). On the procedure: To each well of a 96-well plate was added 1 μL of test compound in DMSO and 20 μl of assay buffer (50 mM Tris pH 7.4/0.01% Tween-20/0.1 mg/ml bovine serum albumin/10 μM ferrous sulfate/1 mM sodium ascorbate/20 μg/ml catalase) containing 0.15 μg/ml FLAG-tagged full length PHD2 expressed in and purified from baculovirus-infected Sf9 cells. After a 30 min preincubation at room temperature, the enzymatic reactions were initiated by the addition of 4 μL of substrates (final concentrations of 0.2 μM 2-oxoglutarate and 0.5 μM HIF-1α peptide biotinyl-[…]).
With `O=C(NCc1ccc(F)cc1)c1cnc(-c2ccccn2)nc1O` [Example 7, N-(4-fluorobenzyl)-4-hydroxy-2-pyridin-2-ylpyrimidine-5-carboxamide], the half-inhibitory concentration (IC50) was in the range of 100 to 1000 nM.

In the case of `O=C(NCc1ccc(Br)cc1)c1cnc(-n2cccn2)nc1O` [Example 9, N-(4-bromobenzyl)-4-hydroxy-2-(1H-pyrazol-1-yl)pyrimidine-5-carboxamide], the IC50 was at most 10 nM.

Take `O=C(NCc1ccc(C(F)(F)F)nc1)c1cnc(-n2cccn2)nc1O` [Example 10]: the IC50 was 10 to 100 nM.

On to `O=C(NCc1ccc(F)cc1)c1cnc(-c2ccc(C(F)(F)F)cn2)nc1O` [Example 11, N-(4-fluorobenzyl)-4-hydroxy-2-[5-(trifluoromethyl)pyridin-2-yl]pyrimidine-5-carboxamide], for which the IC50 fell in the range of 1000 to 10000 nM.

In the case of `CC(NC(=O)c1cnc(-c2ccccn2)nc1O)c1ccc(F)cc1` (stereo not drawn) [Example 12, N-[1-(4-fluorophenyl)ethyl]-4-hydroxy-2-pyridin-2-ylpyrimidine-5-carboxamide], the IC50 was 10 to 100 nM.

In the case of `COc1ccc(C(NC(=O)c2cnc(-c3ccccn3)nc2O)c2ccc(OC)cc2)cc1` [Example 14, N-[bis(4-methoxyphenyl)methyl]-4-hydroxy-2-pyridin-2-ylpyrimidine-5-carboxamide], the IC50 is at most 10 nM.

As to `Cc1cccc(-c2ncc(C(=O)NCc3ccc(-c4ccccc4)cc3)c(O)n2)n1` [Example 15, N-(biphenyl-4-ylmethyl)-4-hydroxy-2-(6-methylpyridin-2-yl)pyrimidine-5-carboxamide], the IC50 lay within 100 to 1000 nM.

`Cc1cccc(-c2ncc(C(=O)Nc3ccc(F)cc3Cl)c(O)n2)n1` [Example 16, N-(2-chloro-4-fluorophenyl)-4-hydroxy-2-(6-methylpyridin-2-yl)pyrimidine-5-carboxamide]: the concentration for half-maximal inhibition (IC50) lay in the range of 1000 to 10000 nM.

As to `Cc1cccc(-c2ncc(C(=O)NCc3ccc(Cl)cc3Cl)c(O)n2)n1` [Example 17, N-(2,4-dichlorobenzyl)-4-hydroxy-2-(6-methylpyridin-2-yl)pyrimidine-5-carboxamide], the IC50 fell in the range of 100 to 1000 nM.

As to `O=C(NCc1ccc(F)cc1)c1cnc(-c2cnccn2)nc1O` [Example 18, N-(4-fluorobenzyl)-4-hydroxy-2-pyrazin-2-ylpyrimidine-5-carboxamide], the IC50 was 100 to 1000 nM.

Regarding `CC(C)(NC(=O)c1cnc(-c2cnccn2)nc1O)c1ccccc1` [Example 19, 4-Hydroxy-N-(1-methyl-1-phenylethyl)-2-pyrazin-2-ylpyrimidine-5-carboxamide], the IC50 lay within 10 to 100 nM.

`O=C(NCc1ccc(C(F)(F)F)cc1)c1cnc(-c2cnccn2)nc1O` [Example 20, 4-Hydroxy-2-pyrazin-2-yl-N-[4-(trifluoromethyl)benzyl]pyrimidine-5-carboxamide]: the IC50 is 10 to 100 nM.

Consider `O=C(NCc1ccc(F)cc1)c1cnc(-c2ncccn2)nc1O` [Example 21, N-(4-fluorobenzyl)-4-hydroxy-2,2′-bipyrimidine-5-carboxamide], for which the concentration for half-maximal inhibition (IC50) lay in the range of 1000 to 10000 nM.

On to `O=C(NCc1ccc(C(F)(F)F)cc1)c1cnc(-c2ncccn2)nc1O` [Example 23, 4-Hydroxy-N-[4-(trifluoromethyl)benzyl]-2,2′-bipyrimidine-5-carboxamide], for which the IC50 was in the range of 100 to 1000 nM.

For the compound `O=C(NCc1ccccc1Cl)c1cnc(-c2cccnn2)nc1O` [Example 24, N-(2-chlorobenzyl)-4-hydroxy-2-pyridazin-3-ylpyrimidine-5-carboxamide], the IC50 fell in the range of 10 to 100 nM.

For the compound `C[C@H](NC(=O)c1cnc(-c2cccnn2)nc1O)c1ccc(Br)cc1` [Example 25, N-[(1S)-1-(4-bromophenyl)ethyl]-4-hydroxy-2-pyridazin-3-ylpyrimidine-5-carboxamide], the IC50 was at most 10 nM.

With `O=C(NC1(c2ccccc2)CCCCC1)c1cnc(-c2cccnn2)nc1O` [Example 27, 4-hydroxy-N-(1-phenylcyclohexyl)-2-pyridazin-3-ylpyrimidine-5-carboxamide], the IC50 is at most 10 nM.

With `O=C(NCc1ccc(-c2ccccc2)cc1)c1cnc(-c2cccnn2)nc1O` [Example 28, N-(biphenyl-4-ylmethyl)-4-hydroxy-2-pyridazin-3-ylpyrimidine-5-carboxamide], the IC50 was at most 10 nM.

Take `Cc1nc(-c2ncc(C(=O)NCc3ccc(C(F)(F)F)cc3)c(O)n2)cs1` [Example 29, 4-Hydroxy-2-(2-methyl-1,3-thiazol-4-yl)-N-[4-(trifluoromethyl)benzyl]pyrimidine-5-carboxamide]: the IC50 was in the range of 10 to 100 nM.

Turning to `Cc1nc(-c2ncc(C(=O)NCc3ccc(-c4ccccc4)cc3)c(O)n2)cs1` [Example 30, N-(biphenyl-4-ylmethyl)-4-hydroxy-2-(2-methyl-1,3-thiazol-4-yl)pyrimidine-5-carboxamide], the IC50 was 10 to 100 nM.

With `Cc1nc(-c2ncc(C(=O)NCc3ccc(OC(F)(F)F)cc3)c(O)n2)cs1` [Example 31, 4-Hydroxy-2-(2-methyl-1,3-thiazol-4-yl)-N-[4-(trifluoromethoxy)benzyl]pyrimidine-5-carboxamide], the IC50 was 100 to 1000 nM.

Take `Cc1nc(-c2ncc(C(=O)NCCc3ccc(F)cc3)c(O)n2)cs1` [Example 32, N-[2-(4-fluorophenyl)ethyl]-4-hydroxy-2-(2-methyl-1,3-thiazol-4-yl)pyrimidine-5-carboxamide]: the IC50 fell in the range of 100 to 1000 nM.

As to `Cc1nc(-c2ncc(C(=O)Nc3ccc(C(F)(F)F)cc3)c(O)n2)cs1` [Example 34, 4-Hydroxy-2-(2-methyl-1,3-thiazol-4-yl)-N-[4-(trifluoromethyl)phenyl]pyrimidine-5-carboxamide], the IC50 lay within 1000 to 10000 nM.

In the case of `CC[C@H](NC(=O)c1cnc(-c2csc(C)n2)nc1O)c1ccccc1` [Example 35, 4-Hydroxy-2-(2-methyl-1,3-thiazol-4-yl)-N-[(1S)-1-phenylpropyl]pyrimidine-5-carboxamide], the 50% inhibitory concentration (IC50) lay within 10 to 100 nM.

`CC[C@@H](NC(=O)c1cnc(-c2csc(C)n2)nc1O)c1ccccc1` [Example 36, 4-Hydroxy-2-(2-methyl-1,3-thiazol-4-yl)-N-[(1R)-1-phenylpropyl]pyrimidine-5-carboxamide]: the IC50 lay in the range of 10 to 100 nM.

Consider `Cc1nc(-c2ncc(C(=O)NCc3ccc(Cl)cc3Cl)c(O)n2)cs1` [Example 37, N-(2,4-dichlorobenzyl)-4-hydroxy-2-(2-methyl-1,3-thiazol-4-yl)pyrimidine-5-carboxamide], for which the IC50 fell in the range of 10 to 100 nM.

Turning to `Cc1nc(-c2ncc(C(=O)Nc3ccc(F)cc3Cl)c(O)n2)cs1` [Example 38, N-(2-chloro-4-fluorophenyl)-4-hydroxy-2-(2-methyl-1,3-thiazol-4-yl)pyrimidine-5-carboxamide], the IC50 was in the range of 100 to 1000 nM.

On to `Cc1nc(-c2ncc(C(=O)NC(c3ccccc3)c3ccccc3)c(O)n2)cs1` [Example 39, N-(diphenylmethyl)-4-hydroxy-2-(2-methyl-1,3-thiazol-4-yl)pyrimidine-5-carboxamide], for which the IC50 lay within 10 to 100 nM.

For the compound `Cc1nc(-c2ncc(C(=O)NC(C)(C)C)c(O)n2)cs1` [Example 40, N-(tert-butyl)-4-hydroxy-2-(2-methyl-1,3-thiazol-4-yl)pyrimidine-5-carboxamide], the IC50 is 100 to 1000 nM.

For `CC[C@H](NC(=O)c1cnc(-c2nc(C)cs2)nc1O)c1ccccc1` [Example 41, 4-Hydroxy-2-(4-methyl-1,3-thiazol-2-yl)-N-[(1S)-1-phenylpropyl]pyrimidine-5-carboxamide], the IC50 was in the range of 100 to 1000 nM.

`Cc1nc(-c2ncc(C(=O)NCc3cccc(-c4ccccc4)c3)c(O)n2)cs1` [Example 42, N-(biphenyl-3-ylmethyl)-4-hydroxy-2-(2-methyl-1,3-thiazol-4-yl)pyrimidine-5-carboxamide]: the half-maximal inhibitory concentration (IC50) lay within 10 to 100 nM.

In the case of `Cc1cc(C)n(-c2ncc(C(=O)NCc3ccc(OC(F)(F)F)cc3)c(O)n2)n1` [Example 44, 2-(3,5-Dimethyl-1H-pyrazol-1-yl)-4-hydroxy-N-[4-(trifluoromethoxy)benzyl]pyrimidine-5-carboxamide], the IC50 was 100 to 1000 nM.

For `O=C(NC(c1ccccc1)c1ccccc1)c1cnc(-c2ccc[nH]2)nc1O` [Example 45, N-(diphenylmethyl)-4-hydroxy-2-(1H-pyrrol-2-yl)pyrimidine-5-carboxamide], the IC50 fell in the range of 100 to 1000 nM.

In the case of `O=C(NC(c1ccccc1)c1ccccc1)c1cnc(-n2cncn2)nc1O` [Example 46, N-(diphenylmethyl)-4-hydroxy-2-(1H-1,2,4-triazol-1-yl)pyrimidine-5-carboxamide], the half-maximal inhibitory concentration (IC50) was in the range of 100 to 1000 nM.

Take `CC[C@H](NC(=O)c1cnc(-n2cccn2)nc1O)c1ccccc1` [Example 48, 4-Hydroxy-N-[(1S)-1-phenylpropyl]-2-(1H-pyrazol-1-yl)pyrimidine-5-carboxamide]: the IC50 is at most 10 nM.

For `O=C(NCc1ccc(Cl)cc1Cl)c1cnc(-n2cccn2)nc1O` [Example 51, N-(2,4-dichlorobenzyl)-4-hydroxy-2-(1H-pyrazol-1-yl)pyrimidine-5-carboxamide], the IC50 was at most 10 nM.

In the case of `O=C(NCc1cccc(-c2ccccc2)c1)c1cnc(-n2cccn2)nc1O` [Example 53, N-(biphenyl-3-ylmethyl)-4-hydroxy-2-(1H-pyrazol-1-yl)pyrimidine-5-carboxamide], the IC50 is at most 10 nM.

Regarding `O=C(NCc1ccc(C(F)(F)F)cc1)c1cnc(-n2cccn2)nc1O` [Example 54, 4-Hydroxy-2-(1H-pyrazol-1-yl)-N-[4-(trifluoromethyl)benzyl]pynmidine-5-carboxamide], the IC50 was at most 10 nM.

`O=C(NCc1nc2ccccc2s1)c1cnc(-n2cccn2)nc1O` [Example 55, N-(1,3-benzothiazol-2-ylmethyl)-4-hydroxy-2-(1H-pyrazol-1-yl)pyrimidine-5-carboxamide]: the IC50 is at most 10 nM.

In general, IC50 refers to the concentration that gives 50% inhibition.

These data come from US8278304B2, “Substituted 4-hydroxypyrimidine-5-carboxamides” (Merck Sharp & Dohme Corp., priority 2008, dated 2012).
